The record followed here is patent US7335373B2, “Biocidal siloxane coating material containing N-halogenated amine and amide functional groups” (Auburn University, priority 2003, dated 2008).

The conditions of series [1]: after 5 washing cycles.
Series [2] in a line: Oxidative chlorine loading by iodometric/thiosulfate titration. As to conditions: cotton fabric treated directly with 2% by weight TTDD, chlorinated in 10 vol % bleach at pH 8 for 30 minutes.

With `CC1(C)CC2(CC(C)(C)N1)NC(=O)NC2=O` [TTDD], in series [1] (TTDD-treated chlorinated cotton fabric), the “titratable chlorine after washing” value is on record as “no titratable chlorine”. Also, the rechlorination after washing entry in series [1] (TTDD-treated cotton fabric) is reported as “could not be rechlorinated”. Moreover, the “Cl^+ loading” value in series [2] was 0.57%.
